Test system: HeLa
Test: Cytotoxicity against HeLa cell lines
Type: functional, cell-based
Details: Homo sapiens

SMILES | EC50
COCn1c2c(c3ccccc31)C(=O)c1cnc3ccccc3c1C2=O | 420 nM
O=C1c2c[n+]([O-])c3ccccc3c2C(=O)c2[nH]c3ccccc3c21 [CALOTHRIXIN A] | 120 nM
O=C1c2[nH]c3ccccc3c2C(=O)c2cnc3ccccc3c21 [CALOTHRIXIN B] | 240 nM
COC(=O)c1ccccc1C(=O)c1c[nH]c2ccccc12 | > 50000 nM
COn1c2c(c3ccccc31)C(=O)c1ccccc1C2=O | 1600 nM
O=C1c2ccncc2C(=O)c2c1[nH]c1ccccc21 | 150 nM
COC(=O)c1ccccc1C(=O)c1cn(OC)c2ccccc12 | > 50000 nM
O=C1c2ccccc2C(=O)c2c1[nH]c1ccccc21 [BENZOCARBAZOLEDIONE] | 430 nM
CC1=CC(=O)c2ccccc2C1=O [MENADIONE] | 3700 nM
